This passage reports IC50 results from US10040781B2, “Tank-binding kinase inhibitor compounds” (Gilead Sciences, Inc., priority 2014, dated 2018).

Read-outs that look alike come from different tables or passages of the source.

One assay concerns the target TBK1 (Homo sapiens (Human), UniProt Q9UHD2). The experiment in a line: TBK1 TR-FRET enzymatic assay.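 Also: phosphorylation of a biotinylated Ser/Thr peptide by purified full-length recombinant TBK1, read by TR-FRET after 240 min at 25 °C, IC50 is the geometric mean of at least four runs.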
The target of another assay is hJAK2 (Homo sapiens (Human), UniProt O60674). The experiment in a line: hJAK2 LANCE TR-FRET enzymatic assay. It is filed as biochemical. As to conditions: read-out: JAK2 IC50. On the technique in general: TR-FRET usually uses a lanthanide donor and a delayed reading to cut background.
The next assay deals with IKKε (Homo sapiens (Human), UniProt Q14164). The experiment in a line: IKKε TR-FRET enzymatic assay. The following applies: read-out: IKKe IC50. It is filed as biochemical.
Sequence of IKKε (Q14164 whole entry): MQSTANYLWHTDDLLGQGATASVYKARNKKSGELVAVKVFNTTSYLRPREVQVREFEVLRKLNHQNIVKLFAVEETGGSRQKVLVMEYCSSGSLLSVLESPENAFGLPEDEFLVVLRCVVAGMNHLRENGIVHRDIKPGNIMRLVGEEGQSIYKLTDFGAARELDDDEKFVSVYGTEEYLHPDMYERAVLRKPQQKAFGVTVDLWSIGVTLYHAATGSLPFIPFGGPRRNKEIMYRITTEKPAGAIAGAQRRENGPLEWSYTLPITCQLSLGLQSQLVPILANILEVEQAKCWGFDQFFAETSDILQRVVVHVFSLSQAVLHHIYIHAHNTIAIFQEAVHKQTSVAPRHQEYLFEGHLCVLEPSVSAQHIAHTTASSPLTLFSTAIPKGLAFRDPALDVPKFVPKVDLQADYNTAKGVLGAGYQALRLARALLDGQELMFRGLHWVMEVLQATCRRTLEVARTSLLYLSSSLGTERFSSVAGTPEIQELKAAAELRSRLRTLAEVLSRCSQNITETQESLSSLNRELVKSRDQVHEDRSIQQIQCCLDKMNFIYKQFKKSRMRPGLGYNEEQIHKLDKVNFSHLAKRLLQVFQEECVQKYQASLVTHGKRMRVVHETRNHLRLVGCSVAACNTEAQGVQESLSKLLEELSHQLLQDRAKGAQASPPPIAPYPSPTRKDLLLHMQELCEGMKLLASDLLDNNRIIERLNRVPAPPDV

Sequence of TBK1 (Q9UHD2 whole entry): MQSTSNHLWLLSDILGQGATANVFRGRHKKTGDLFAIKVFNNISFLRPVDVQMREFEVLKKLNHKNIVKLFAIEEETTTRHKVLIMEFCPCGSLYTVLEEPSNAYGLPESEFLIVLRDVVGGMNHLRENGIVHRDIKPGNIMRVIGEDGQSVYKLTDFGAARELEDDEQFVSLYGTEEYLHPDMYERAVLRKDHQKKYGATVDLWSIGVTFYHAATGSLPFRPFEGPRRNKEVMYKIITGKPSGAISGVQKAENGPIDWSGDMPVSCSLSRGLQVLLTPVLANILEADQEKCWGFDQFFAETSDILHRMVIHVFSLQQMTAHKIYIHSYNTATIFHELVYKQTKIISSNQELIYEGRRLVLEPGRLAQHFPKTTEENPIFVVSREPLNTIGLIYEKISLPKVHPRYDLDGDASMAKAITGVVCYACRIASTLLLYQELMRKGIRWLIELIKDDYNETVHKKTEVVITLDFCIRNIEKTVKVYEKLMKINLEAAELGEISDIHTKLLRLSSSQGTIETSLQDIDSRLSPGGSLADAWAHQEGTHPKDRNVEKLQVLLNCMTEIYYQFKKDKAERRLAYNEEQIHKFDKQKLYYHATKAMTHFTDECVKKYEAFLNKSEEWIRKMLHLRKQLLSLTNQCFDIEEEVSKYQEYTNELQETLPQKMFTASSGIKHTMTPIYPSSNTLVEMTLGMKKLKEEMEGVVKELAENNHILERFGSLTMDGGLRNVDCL
Sequence of hJAK2 (O60674 whole entry): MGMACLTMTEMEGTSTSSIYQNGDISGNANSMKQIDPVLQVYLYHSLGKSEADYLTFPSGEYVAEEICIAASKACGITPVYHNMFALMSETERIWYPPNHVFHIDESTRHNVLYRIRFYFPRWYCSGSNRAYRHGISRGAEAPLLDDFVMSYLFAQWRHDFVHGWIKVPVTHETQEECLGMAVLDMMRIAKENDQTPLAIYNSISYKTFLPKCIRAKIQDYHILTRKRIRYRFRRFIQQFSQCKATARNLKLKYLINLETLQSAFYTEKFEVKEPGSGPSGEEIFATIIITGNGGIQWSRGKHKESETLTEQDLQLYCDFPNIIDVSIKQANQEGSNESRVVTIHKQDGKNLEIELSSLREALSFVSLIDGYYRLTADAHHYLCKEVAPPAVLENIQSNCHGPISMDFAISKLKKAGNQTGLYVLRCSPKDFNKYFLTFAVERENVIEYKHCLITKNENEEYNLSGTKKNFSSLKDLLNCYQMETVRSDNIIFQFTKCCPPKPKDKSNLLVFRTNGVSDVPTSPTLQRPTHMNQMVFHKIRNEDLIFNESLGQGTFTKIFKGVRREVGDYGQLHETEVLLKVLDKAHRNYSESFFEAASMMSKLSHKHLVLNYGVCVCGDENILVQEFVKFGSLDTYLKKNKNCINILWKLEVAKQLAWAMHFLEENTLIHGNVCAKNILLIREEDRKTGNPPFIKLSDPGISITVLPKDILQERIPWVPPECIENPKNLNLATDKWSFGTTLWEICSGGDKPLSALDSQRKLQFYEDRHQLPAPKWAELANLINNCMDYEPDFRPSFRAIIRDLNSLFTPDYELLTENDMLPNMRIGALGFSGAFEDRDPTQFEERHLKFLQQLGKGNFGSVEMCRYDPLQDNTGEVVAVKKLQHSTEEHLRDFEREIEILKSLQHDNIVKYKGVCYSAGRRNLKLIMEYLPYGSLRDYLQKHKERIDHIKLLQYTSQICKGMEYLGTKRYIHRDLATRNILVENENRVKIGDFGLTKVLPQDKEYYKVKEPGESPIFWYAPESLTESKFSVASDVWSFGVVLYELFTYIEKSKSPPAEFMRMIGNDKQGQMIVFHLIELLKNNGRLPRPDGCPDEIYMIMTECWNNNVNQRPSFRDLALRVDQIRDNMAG

Consider `N#Cc1cc(-c2ncnc(Nc3ccc(N4CCN(C5COC5)CC4)cc3)n2)ccc1O[C@H]1CCN(C(=O)CCO)CC1(F)F` [Example 161, (S)-2-((3,3-difluoro-1-(3-hydroxypropanoyl)piperidin-4-yl)oxy)-5-(4-((4-(4-(oxetan-3-yl)piperazin-1-yl)phenyl)amino)-1,3,5-triazin-2-yl)benzonitrile], for which the IC50 (in general, the concentration needed to halve the response being measured) on TBK1 came to 2 nM; on hJAK2, 173 nM; at IKKε, 2 nM.

As for `N#Cc1cc(-c2ncnc(Nc3ccc(N4CCN(C5COC5)CC4)cc3)n2)ccc1OC1CCN(C(=O)c2ccc[nH]2)CC1(F)F` (stereo not drawn) [Example 162, 2-((3,3-difluoro-1-(1H-pyrrole-2-carbonyl)piperidin-4-yl)oxy)-5-(4-((4-(4-(oxetan-3-yl)piperazin-1-yl)phenyl)amino)-1,3,5-triazin-2-yl)benzonitrile], the IC50 against TBK1 was 5 nM; at hJAK2 it was 583 nM; on IKKε, 4 nM.

Take `N#Cc1cc(-c2ncnc(Nc3ccc(N4CCN(C5COC5)CC4)cc3)n2)ccc1O[C@H]1CCN(C(=O)c2ccn[nH]2)CC1(F)F` [Example 164, (S)-2-((3,3-difluoro-1-(1H-pyrazole-5-carbonyl)piperidin-4-yl)oxy)-5-(4-((4-(4-(oxetan-3-yl)piperazin-1-yl)phenyl)amino)-1,3,5-triazin-2-yl)benzonitrile]: the IC50 at TBK1 was 3 nM; at hJAK2, 155 nM; on IKKε, 1 nM.

With `N#Cc1cc(-c2ncnc(Nc3ccc(N4CCN(C5COC5)CC4)cc3)n2)ccc1O[C@H]1CCN(C(=O)c2cnc[nH]2)CC1(F)F` [Example 167, (S)-2-((3,3-difluoro-1-(1H-imidazole-5-carbonyl)piperidin-4-yl)oxy)-5-(4-((4-(4-(oxetan-3-yl)piperazin-1-yl)phenyl)amino)-1,3,5-triazin-2-yl)benzonitrile], the 50% inhibitory concentration (IC50) against TBK1 worked out at 3 nM; at hJAK2, 104 nM; on IKKε, 1 nM.

As for `C[C@@H]1C[C@@H](Oc2ccc(-c3ncnc(Nc4ccc(N5CCN(C6COC6)CC5)cc4)n3)cc2C#N)CCN1C(=O)CO` [Example 168, 2-(((2R,4S)-1-(2-hydroxyacetyl)-2-methylpiperidin-4-yl)oxy)-5-(4-((4-(4-(oxetan-3-yl)piperazin-1-yl)phenyl)amino)-1,3,5-triazin-2-yl)benzonitrile], the figures for the IC50 on TBK1, on hJAK2 and at IKKε were 15 nM, 877 nM and 61 nM, respectively.

With `C[C@H]1C[C@@H](Oc2ccc(-c3ncnc(Nc4ccc(N5CCN(C6COC6)CC5)cc4)n3)cc2C#N)CCN1C(=O)CO` [Example 169, 2-(((2S,4S)-1-(2-hydroxyacetyl)-2-methylpiperidin-4-yl)oxy)-5-(4-((4-(4-(oxetan-3-yl)piperazin-1-yl)phenyl)amino)-1,3,5-triazin-2-yl)benzonitrile], the results for the IC50 on TBK1, at hJAK2 and at IKKε were 2 nM, 230 nM and 5 nM, respectively.

As to `CC1CN(C(=O)CO)CCC1Oc1ccc(-c2ncnc(Nc3ccc(N4CCN(C5COC5)CC4)cc3)n2)cc1C#N` (stereo not drawn) [Example 170, 2-((1-(2-hydroxyacetyl)-3-methylpiperidin-4-yl)oxy)-5-(4-((4-(4-(oxetan-3-yl)piperazin-1-yl)phenyl)amino)-1,3,5-triazin-2-yl)benzonitrile], the values for the concentration for half-maximal inhibition (IC50) at TBK1, at hJAK2 and at IKKε were 3 nM, 255 nM and 8 nM, respectively.

With `CC1CC(Oc2ccc(-c3ncnc(Nc4ccc(N5CCN(C6COC6)CC5)cc4)n3)cc2C#N)CC(C)N1C(=O)CO` (stereo not drawn) [Example 171, 2-((1-(2-hydroxyacetyl)-2,6-dimethylpiperidin-4-yl)oxy)-5-(4-((4-(4-(oxetan-3-yl)piperazin-1-yl)phenyl)amino)-1,3,5-triazin-2-yl)benzonitrile], the IC50 against TBK1 is 2 nM; on hJAK2, 463 nM; on IKKε it was 9 nM.

For the molecule `N#Cc1cc(-c2ncnc(Nc3ccc(N4CCN(C5COC5)CC4)cc3)n2)ccc1OC1C2CC1CN(C(=O)CO)C2` (stereo not drawn) [Example 172, 2-((3-(2-hydroxyacetyl)-3-azabicyclo[3.1.1]heptan-6-yl)oxy)-5-(4-((4-(4-(oxetan-3-yl)piperazin-1-yl)phenyl)amino)-1,3,5-triazin-2-yl)benzonitrile], the results for the half-maximal inhibitory concentration (IC50) against TBK1, on hJAK2 and on IKKε were 72 nM, at least 1000 nM and 676 nM, respectively.

In the case of `N#Cc1cc(-c2ncnc(Nc3ccc(N4CCN(C5COC5)CC4)cc3)n2)ccc1OC1CC2CCC(C1)N2C(=O)CO` (stereo not drawn) [Example 173, 2-((8-(2-hydroxyacetyl)-8-azabicyclo[3.2.1]octan-3-yl)oxy)-5-(4-((4-(4-(oxetan-3-yl)piperazin-1-yl)phenyl)amino)-1,3,5-triazin-2-yl)benzonitrile], the IC50 worked out at 92 nM against TBK1 (TBK1 IC50), 265 nM on hJAK2 and 218 nM at IKKε.

As to `CC1(C)CN(C(=O)CO)CC(F)C1Oc1ccc(-c2ncnc(Nc3ccc(N4CCN(C5COC5)CC4)cc3)n2)cc1C#N` (stereo not drawn) [Example 177, 2-((5-fluoro-1-(2-hydroxyacetyl)-3,3-dimethylpiperidin-4-yl)oxy)-5-(4-((4-(4-(oxetan-3-yl)piperazin-1-yl)phenyl)amino)-1,3,5-triazin-2-yl)benzonitrile], the half-inhibitory concentration (IC50) at TBK1 was 6 nM; on hJAK2, 117 nM; at IKKε, 3 nM.

On to `C[C@H](O)C(=O)N1CC(F)C(Oc2ccc(-c3ncnc(Nc4ccc(N5CCN(C6COC6)CC5)cc4)n3)cc2C#N)C(C)(C)C1` (stereo partly drawn) [Example 180, 2-((5-fluoro-1-((S)-2-hydroxypropanoyl)-3,3-dimethylpiperidin-4-yl)oxy)-5-(4-((4-(4-(oxetan-3-yl)piperazin-1-yl)phenyl)amino)-1,3,5-triazin-2-yl)benzonitrile], for which the values for the IC50 on TBK1, on hJAK2 and on IKKε were 11 nM, 317 nM and 17 nM, respectively.

Consider `C[C@H](O)C(=O)N1CC[C@H](Oc2ccc(-c3ncnc(Nc4ccc(N5CCN(C6COC6)CC5)cc4)n3)cc2C#N)C[C@@H]1C` [Example 181, 2-(((2S,4S)-1-((S)-2-hydroxypropanoyl)-2-methylpiperidin-4-yl)oxy)-5-(4-((4-(4-(oxetan-3-yl)piperazin-1-yl)phenyl)amino)-1,3,5-triazin-2-yl)benzonitrile], for which the IC50 against TBK1 was found to be 10 nM; at hJAK2 it was 432 nM; on IKKε, 20 nM.

Consider `C[C@@H](O)C(=O)N1CC[C@H](Oc2ccc(-c3ncnc(Nc4ccc(N5CCN(C6COC6)CC5)cc4)n3)cc2C#N)C[C@@H]1C` [Example 182, 2-(((2S,4S)-1-((R)-2-hydroxypropanoyl)-2-methylpiperidin-4-yl)oxy)-5-(4-((4-(4-(oxetan-3-yl)piperazin-1-yl)phenyl)amino)-1,3,5-triazin-2-yl)benzonitrile], for which the IC50 stood at 32 nM against TBK1, 491 nM at hJAK2 and 95 nM at IKKε.

Consider `C[C@H](O)C(=O)N1CC[C@H](Oc2ccc(-c3ncnc(Nc4ccc(N5CCN(C6COC6)CC5)cc4)n3)cc2C#N)C[C@H]1C` [Example 183, 2-(((2R,4S)-1-((S)-2-hydroxypropanoyl)-2-methylpiperidin-4-yl)oxy)-5-(4-((4-(4-(oxetan-3-yl)piperazin-1-yl)phenyl)amino)-1,3,5-triazin-2-yl)benzonitrile], for which the IC50 stood at 50 nM against TBK1, 593 nM at hJAK2 and 120 nM on IKKε.
